The source of these data is US7833331B2, “Non-toxic corrosion-protection pigments based on cobalt” (University of Dayton, priority 2007, dated 2010).

A short description of experiment [1]: ASTM B-117 static salt fog test of PVB wash primer with pigment, rated by ASTM D-1654. To be noted: ASTM D-1654 rating; for 2024-T3 B-117 Proc. A / 7075-T6 B-117 Proc. A: failure at scribe; for 2024-T3 B-117 Proc. B / 7075-T6 B-117 Proc. B: failure in unscribed areas. The protocol: (§1) The corrosion inhibiting performance of CoIII pigments was evaluated by incorporating them into primer paint formulations. The acid wash primer paint formulations called out in DoD-P-15328 [Primer (Wash), Pretreatment (Formulation No. 117 for Metals)] were used to test the various pigments. The wash primer is composed of a resin, an acid, a corrosion inhibiting pigment, powdered talc, and carbon lampblack. The acid content of this wash primer provides a rigorous initial test of the stability and performance of the pigments. Other, more benign, polymer-based binder and resin systems might not separate the compounds based on their performance as effectively or as rapidly. The base solution for the wash primer in this specification was prepared by mixing 88.3 grams of isopropanol, 31.3 grams of n-butanol, and 3.8 grams of deionized water with 14 grams of poly(vinyl butyral) resin (PVB) (Monsanto Butvar B-90TM). PVB was used exclusively throughout testing to avoid preparation and compositional complications during analysis of pigment performance. However, the invention is not limited to the use of PVB. Acid diluent was prepared by mixing 70 grams of 85% phosphoric acid, 63 grams of deionized water, and 247 grams of isopropanol. Finely-ground pigment powder was measured out and added to 13.74 grams of the base solution for each paint to be tested. A small amount (0.2 g) of powdered talc (magnesium silicate) “filler” was added. Lampblack was not added to these samples. These components were mixed thoroughly by hand and 3.8 g of phosphoric acid diluent added with further mixing. This rough processing allowed direct comparisons of pigment performance to be made without complications due to powder treatments, modifications, and additives. […] This is not the conventional paint application procedure for aluminum alloys. Under normal service conditions, aluminum alloys are first subjected to a hexavalent chromium-containing conversion coating prior to primer application. However, the conversion coating was omitted so that the performance of the pigment alone could be evaluated and not the synergistic effects of hexavalent chromium (in the conversion coating) or even of barrier films (in the phosphate or anodized coatings). Multiple samples of specific pigment compositions were prepared and tested. […] The chromate pigments were prepared identically to those used to test CoIII composition variations. PVB wash primers containing various pigment formulations were evaluated by exposing them to static salt fog (ASTM B-117) and cyclic Prohesiomm (ASTM G-85.5) accelerated corrosion tests. ASTM B-117 is a traditional corrosion “proof” test that has little relation to a real working environment. This accelerated corrosion test exposes samples to a constant salt-water fog and is a de facto test of solubility for corrosion inhibitors. […] This is particularly true of inhibitors and compounds that have not been fully optimized with respect to solubility. ASTM G-85.5 (ProhesionTM) is a cyclic corrosion test that more closely resembles real working environments. This accelerated corrosion test exposes samples to a cycle of fog of dilute salt and ammonium sulfate at room temperature followed by forced-air drying at an elevated temperature. This is a more realistic test of the ability of a compound to inhibit corrosion. Results of these tests can be combined to gain insight into how a particular coating or compound will perform relative to a standard as well as helping identify strengths and weaknesses in the performance of the material. ASTM D-1654 evaluation standard for painted or coated specimens subjected to corrosive environments was used to evaluate the performance of the coatings. After the paint dried for 24 hours, each plate was scribed with an X and the plate edges were sealed with PVC tape to eliminate corrosion edge effects. Two visual observations are associated with this rating test. […]

A short description of experiment [2]: ASTM G-85.5 cyclic Prohesion test of PVB wash primer with pigment, rated by ASTM D-1654. To be noted: ASTM D-1654 rating; for 2024-T3 G-85 Proc. A / 7075-T6 G-85 Proc. A: failure at scribe; for 2024-T3 G-85 Proc. B / 7075-T6 G-85 Proc. B: failure in unscribed areas. As for the experimental part:
as §1

Setting [3] is: 144 hours, inhibitor conc. 1.49 × 10^−3 M (20% of Cr).
The mark [4] stands for this setting: 139 hours, inhibitor conc. 7.44 × 10^−4 M (10% of Cr).
Setting [5] is: 139 hours, inhibitor conc. 1.49 × 10^−3 M (20% of Cr).
The mark [6] stands for this setting: 139 hours, inhibitor conc. 3.72 × 10^−3 M (50% of Cr).
[7] abbreviates: 117 hours, inhibitor conc. 1.49 × 10^−3 M (20% of Cr).

“And” between values parts separate entries of the source, which are not always exact repeats. Identical values can stand only once.

With barium 10-molybdocobaltate, in experiment [1] (setting [3]), the “2024-T3 B-117 Proc. A” value is listed as 7, the “7075-T6 B-117 Proc. A” value was 6, the “2024-T3 B-117 Proc. B” value turned out to be 6 and the “7075-T6 B-117 Proc. B” value was determined as 5. Further, in experiment [2] (setting [3]), the “2024-T3 G-85 Proc. A” value worked out at 7, the “7075-T6 G-85 Proc. A” value was 7, the “2024-T3 G-85 Proc. B” value was determined as 7 and the “7075-T6 G-85 Proc. B” value stood at 7.
Consider barium 11-tungstophosphocobaltate, for which, in experiment [1] (setting [4]), the “2024-T3 B-117 Proc. A” value is given as 7, the “7075-T6 B-117 Proc. A” value was 7, the “2024-T3 B-117 Proc. B” value came out at 6 and the “7075-T6 B-117 Proc. B” value amounted to 6. In addition, in experiment [2] (setting [4]), the “2024-T3 G-85 Proc. A” value worked out at 7; the “7075-T6 G-85 Proc. A” value worked out at 7; the “2024-T3 G-85 Proc. B” value is 7 and 6; the “7075-T6 G-85 Proc. B” value was 6.
In the case of sodium 10-vanadatocobaltate, in experiment [1] (setting [5]), the “2024-T3 B-117 Proc. A” value is reported as 9, the “7075-T6 B-117 Proc. A” value stood at 6, the “2024-T3 B-117 Proc. B” value is on record as 8 and the “7075-T6 B-117 Proc. B” value is recorded as 7. Also, in experiment [2] (setting [5]), the “2024-T3 G-85 Proc. A” value worked out at 8, the “7075-T6 G-85 Proc. A” value came out at 7, the “2024-T3 G-85 Proc. B” value is recorded as 7 and the “7075-T6 G-85 Proc. B” value was 6.
As for zinc 10-molybdocobaltate, in experiment [1] (setting [3]), the “2024-T3 B-117 Proc. A” value is given as 7; the “7075-T6 B-117 Proc. A” value is 7; the “2024-T3 B-117 Proc. B” value is 7; the “7075-T6 B-117 Proc. B” value was 7 and 5. In experiment [2] (setting [3]), the “2024-T3 G-85 Proc. A” value is 6 and 7; the “7075-T6 G-85 Proc. A” value is 7; the “2024-T3 G-85 Proc. B” value is 7 and 6; the “7075-T6 G-85 Proc. B” value was 6.
Take zinc 10-vanadatocobaltate: in experiment [1] (setting [5]), the “2024-T3 B-117 Proc. A” value was determined as 9; the “7075-T6 B-117 Proc. A” value is 8 and 9; the “2024-T3 B-117 Proc. B” value is 9 and 8; the “7075-T6 B-117 Proc. B” value was 8 and 9. For the same substance, in experiment [2] (setting [5]), the “2024-T3 G-85 Proc. A” value is listed as 7, the “7075-T6 G-85 Proc. A” value turned out to be 7, the “2024-T3 G-85 Proc. B” value was 6 and the “7075-T6 G-85 Proc. B” value is 6.
For the substance magnesium periodatocobaltate, in experiment [1] (setting [6]), the “2024-T3 B-117 Proc. A” value is 7, the “7075-T6 B-117 Proc. A” value is given as 7, the “2024-T3 B-117 Proc. B” value is listed as 6 and the “7075-T6 B-117 Proc. B” value was 6. In addition, in experiment [2] (setting [6]), the “2024-T3 G-85 Proc. A” value is 7 and 8; the “7075-T6 G-85 Proc. A” value came out at 7; the “2024-T3 G-85 Proc. B” value is 7 and 8; the “7075-T6 G-85 Proc. B” value is given as 7.
Consider strontium 10-molybdocobaltate, for which, in experiment [1] (setting [3]), the “2024-T3 B-117 Proc. A” value was 6 and 7; the “7075-T6 B-117 Proc. A” value was 7 and 6; the “2024-T3 B-117 Proc. B” value is recorded as 5; the “7075-T6 B-117 Proc. B” value was 6 and 5. Further, in experiment [2] (setting [3]), the “2024-T3 G-85 Proc. A” value was determined as 7, the “7075-T6 G-85 Proc. A” value worked out at 7, the “2024-T3 G-85 Proc. B” value was determined as 6 and the “7075-T6 G-85 Proc. B” value turned out to be 6.
Consider magnesium 10-molybdocobaltate, for which, in experiment [1] (setting [3]), the “2024-T3 B-117 Proc. A” value is 7, the “7075-T6 B-117 Proc. A” value is 7, the “2024-T3 B-117 Proc. B” value amounted to 6 and the “7075-T6 B-117 Proc. B” value came to 6. In addition, in experiment [2] (setting [3]), the “2024-T3 G-85 Proc. A” value was 9 and 8; the “7075-T6 G-85 Proc. A” value is given as 9; the “2024-T3 G-85 Proc. B” value was 8 and 7; the “7075-T6 G-85 Proc. B” value was 7 and 8.
With calcium 10-molybdocobaltate, in experiment [1] (setting [3]), the “2024-T3 B-117 Proc. A” value stood at 7; the “7075-T6 B-117 Proc. A” value is 7 and 6; the “2024-T3 B-117 Proc. B” value came out at 6; the “7075-T6 B-117 Proc. B” value came out at 6. For the same substance, in experiment [2] (setting [3]), the “2024-T3 G-85 Proc. A” value is 9; the “7075-T6 G-85 Proc. A” value was 8 and 9; the “2024-T3 G-85 Proc. B” value was 8; the “7075-T6 G-85 Proc. B” value is 7 and 8.
Regarding calcium 10-vanadatocobaltate, in experiment [1] (setting [5]), the “2024-T3 B-117 Proc. A” value worked out at 8, the “7075-T6 B-117 Proc. A” value worked out at 7, the “2024-T3 B-117 Proc. B” value is listed as 7 and the “7075-T6 B-117 Proc. B” value was 6. In experiment [2] (setting [5]), the “2024-T3 G-85 Proc. A” value is 7 and 8; the “7075-T6 G-85 Proc. A” value is recorded as 7; the “2024-T3 G-85 Proc. B” value is given as 6; the “7075-T6 G-85 Proc. B” value was determined as 6.
Take calcium 6-molybdocobaltate: in experiment [1] (setting [7]), the “2024-T3 B-117 Proc. A” value is 7 and 6; the “7075-T6 B-117 Proc. A” value came out at 7; the “2024-T3 B-117 Proc. B” value was 5 and 6; the “7075-T6 B-117 Proc. B” value is recorded as 6. For the same substance, in experiment [2] (setting [7]), the “2024-T3 G-85 Proc. A” value is 8, the “7075-T6 G-85 Proc. A” value is 8, the “2024-T3 G-85 Proc. B” value stood at 7 and the “7075-T6 G-85 Proc. B” value is 8.
strontium 10-vanadatocobaltate: in experiment [1] (setting [5]), the “2024-T3 B-117 Proc. A” value came to 7, the “7075-T6 B-117 Proc. A” value came to 6, the “2024-T3 B-117 Proc. B” value is listed as 6 and the “7075-T6 B-117 Proc. B” value turned out to be 5. In experiment [2] (setting [5]), the “2024-T3 G-85 Proc. A” value is reported as 7, the “7075-T6 G-85 Proc. A” value is reported as 6, the “2024-T3 G-85 Proc. B” value came out at 6 and the “7075-T6 G-85 Proc. B” value is on record as 5.
With magnesium 10-vanadatocobaltate, in experiment [1] (setting [5]), the “2024-T3 B-117 Proc. A” value was 7 and 6; the “7075-T6 B-117 Proc. A” value worked out at 7; the “2024-T3 B-117 Proc. B” value was 7; the “7075-T6 B-117 Proc. B” value turned out to be 7. In experiment [2] (setting [5]), the “2024-T3 G-85 Proc. A” value was 8 and 9; the “7075-T6 G-85 Proc. A” value was 8 and 9; the “2024-T3 G-85 Proc. B” value is 7 and 8; the “7075-T6 G-85 Proc. B” value was 7 and 8.
